In ChEMBL document CHEMBL3045037, “Insecticidal and Neuroblocking Activities of Acetamiprid and Related Compounds” (J Pestic Sci, 2003):

How the values were obtained:
Periplaneta americana [1] = experiment: Insecticidal activity against adult male Periplaneta americana (American cockroach) dosed through injection into abdomen assessed as mortality measured 24 hr post dose in presence of 50 ug metabolic inhibitor PB and 50 ug NIA; assay type: functional
[2] = Lipophilicity, log P of the compound by HPLC based shake flask method; assay type: physicochemical
Periplaneta americana [3] = experiment: Insecticidal activity against adult male Periplaneta americana (American cockroach) dosed through injection into abdomen assessed as mortality measured 24 hr post dose in presence of 50 ug metabolic inhibitor PB; assay type: functional
[4] = system: Abdominal central nerve cord; experiment: Neuroblocking activity in adult male Periplaneta americana (American cockroach) abdominal central nerve cords assessed as neuroblocking concentration measured at 22 to 25 degC; assay type: functional
Periplaneta americana [5] = experiment: Insecticidal activity against adult male Periplaneta americana (American cockroach) dosed through injection into abdomen assessed as mortality measured 24 hr post dose; assay type: functional

| Structure (SMILES) | log(1/MLD) (Periplaneta americana [1]) | logP [2] | log(1/MLD) (Periplaneta americana [3]) | log(1/BC) [4] | log(1/MLD) (Periplaneta americana [5]) |
| --- | --- | --- | --- | --- | --- |
| C/C(=N\C#N)NCc1ccc(Cl)nc1 | 7.5 | 1.07 | 6.7 | 3.7 | 6.4 |
| CCN(Cc1ccc(Cl)nc1)/C(C)=N/C#N | 9.24 | 1.19 | 7.63 | 5.87 | 7.14 |
| CCCN(Cc1ccc(Cl)nc1)/C(C)=N/C#N | 8.34 | 1.62 | 7.44 | 5.14 | 7.04 |
| C/C(=N\C#N)N(Cc1ccc(Cl)nc1)C(C)C | 7.67 | 1.46 |  | 4.47 | 6.78 |
| C=CCN(Cc1ccc(Cl)nc1)/C(C)=N/C#N | 8.07 | 1.56 |  | 5.46 | 7.07 |
| CCCCN(Cc1ccc(Cl)nc1)/C(C)=N/C#N | 7.71 | 2.13 |  | 4.48 | <7.01 |
| CCCCCN(Cc1ccc(Cl)nc1)/C(C)=N/C#N | 7.8 | 2.37 |  | 5.01 | <6.9 |
| C/C(=N\C#N)N(Cc1ccccc1)Cc1ccc(Cl)nc1 | 7.6 | 2.11 |  | 4.46 | 6.7 |
| CC/C(=N\C#N)N(C)Cc1ccc(Cl)nc1 | 8.54 | 1.12 | 7.64 | 5.23 | 7.24 |
| CCC/C(=N\C#N)N(C)Cc1ccc(Cl)nc1 | 7.77 | 1.55 | 6.68 | 3.78 | <6.58 |
| CC(C)/C(=N\C#N)N(C)Cc1ccc(Cl)nc1 | 7.44 | 1.39 | 6.74 | 3.44 | 6.44 |
| CCCC/C(=N\C#N)N(C)Cc1ccc(Cl)nc1 | 6.77 | 1.87 | <6.37 | <3.37 | <6.37 |
| CC(C)C/C(=N\C#N)N(C)Cc1ccc(Cl)nc1 | 6.9 | 1.75 | <6.3 | <3.3 | <6.3 |
| CCCCC/C(=N\C#N)N(C)Cc1ccc(Cl)nc1 | 6.8 | 2.3 | 6.2 | <3.2 | <6.2 |
| CN(Cc1ccc(Cl)nc1)/C(=N/C#N)c1ccccc1 | 6.99 | 1.86 | 6.48 | <3.39 | <6.39 |
| CN(Cc1ccc(Cl)nc1)/C(Cc1ccccc1)=N/C#N | 6.78 | 2.13 | <6.58 | <3.58 | <6.58 |
| C/C(=N\C#N)N(C)Cc1ccc(Cl)nc1 [ACETAMIPRID] | 9.68 | 0.83 | 8.58 | 6.19 | 8.28 |
| O=[N+]([O-])/N=C1\NCCN1Cc1ccc(Cl)nc1 [IMIDACLOPRID] | 10.15 | 0.6 | 9.26 | 5.64 | 8.96 |
